Test systems include SNB-78 CNS; HS 578T breast; MCF7 breast; BT-549 breast; MDA-MB-231 breast; T-47D breast; NCI/ADR-RES ovarian.
Common to all, as to assay: DTP human tumour cell line panel, 48 h

“And” between values parts separate entries of the source, which are not always exact repeats. Equal values may be shown once.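 Protocol summary: plate cells (96-well), add compound at 5 concentrations, incubate 48 h, interpolate endpoints linearly. The concentration for 50% growth inhibition is given as GI50. Definition used: TGI = concentration required for complete inhibition of growth.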

Broadly, the GI50 is the concentration at which growth is held to half of that of the control. Broadly, the TGI is the concentration giving total growth inhibition. `O=c1cccccc1[O-].O=c1cccccc1[O-].O=c1cccccc1[O-].[La+3]`: in the assay with SNB-78 CNS, the GI50 was 10.5 µM and the TGI was 86.9 µM.

`O=C(OC[C@H]1O[C@H](OC(=O)c2cc(O)c(O)c(OC(=O)c3cc(O)c(O)c(O)c3)c2)[C@H](OC(=O)c2cc(O)c(O)c(OC(=O)c3cc(O)c(O)c(O)c3)c2)[C@@H](OC(=O)c2cc(O)c(O)c(OC(=O)c3cc(O)c(O)c(O)c3)c2)[C@@H]1OC(=O)c1cc(O)c(O)c(OC(=O)c2cc(O)c(O)c(O)c2)c1)c1cc(O)c(O)c(OC(=O)c2cc(O)c(O)c(O)c2)c1`: the GI50 was 10.3 µM in the assay on HS 578T breast; 5.21 µM in the assay with MCF7 breast; 6.77 µM with BT-549 breast; 0.898 µM in the assay on MDA-MB-231 breast; 2.85 µM with T-47D breast; 1.3 µM in the assay on NCI/ADR-RES ovarian. Moreover, the TGI was greater than 25 µM in the assay with HS 578T breast; 11.1 µM in the assay on MCF7 breast; greater than 25 µM in the assay on BT-549 breast; greater than 25 µM in the assay on MDA-MB-231 breast; 16.6 µM with T-47D breast; 18.9 µM in the assay on NCI/ADR-RES ovarian.

`O=C1c2ccccc2S(=O)(=O)c2cc(-c3nn[nH]n3)ccc21`: the TGI in the assay on HS 578T breast, in the assay with MCF7 breast, in the assay on BT-549 breast, in the assay with MDA-MB-231 breast, in the assay with T-47D breast and in the assay with NCI/ADR-RES ovarian was greater than 100 µM each time.

Regarding `O=c1c(-c2ccccc2)coc2cc(OC/C(=N/O)c3ccccc3)ccc12`, the GI50 is 34.4 µM in the assay on HS 578T breast; 23.3 µM with MCF7 breast; 29.8 µM with BT-549 breast; 18.2 µM with MDA-MB-231 breast; 15.3 µM with T-47D breast; 17.8 µM in the assay with NCI/ADR-RES ovarian. In addition, the TGI is 86 µM in the assay on HS 578T breast; 47.1 µM in the assay with MCF7 breast; greater than 100 µM with BT-549 breast; 43.7 µM with MDA-MB-231 breast; 96.7 µM in the assay with T-47D breast; 60 µM with NCI/ADR-RES ovarian.

In the case of `O=C1C(=O)c2cccnc2-c2ncccc21`, the GI50 is 0.244 µM in the assay on HS 578T breast; 0.232 µM in the assay on MCF7 breast; 0.242 µM with BT-549 breast; 0.14 µM in the assay on MDA-MB-231 breast; 0.205 µM in the assay with T-47D breast; 0.0898 µM in the assay with NCI/ADR-RES ovarian. Further, the TGI in the assay on HS 578T breast was 1.08 µM; in the assay with MCF7 breast, 0.554 µM; in the assay on BT-549 breast it was 1.19 µM; in the assay with MDA-MB-231 breast it was 0.503 µM; with T-47D breast, 0.461 µM; in the assay on NCI/ADR-RES ovarian, 0.281 µM.

With `O=c1c(O)c(-c2cc(O)c(O)c(O)c2)oc2cc(O)cc(O)c12`, the TGI is greater than 100 µM in the assay with HS 578T breast; 37.4 µM with MCF7 breast; greater than 100 µM in the assay on BT-549 breast; 35.8 µM in the assay on MDA-MB-231 breast; greater than 100 µM in the assay on T-47D breast; 53.2 µM with NCI/ADR-RES ovarian.

Regarding `O=C(O)C1CC(O)CN1` (configuration not stated), the TGI with HS 578T breast, in the assay on MCF7 breast, in the assay with BT-549 breast, in the assay with MDA-MB-231 breast, in the assay with T-47D breast and with NCI/ADR-RES ovarian was greater than 100 µM each time.

On to `Cc1cn(-c2cc(NC(=O)c3ccc(C)c(Nc4nccc(-c5cccnc5)n4)c3)cc(C(F)(F)F)c2)cn1`, for which the GI50 in the assay on HS 578T breast was 5.73 µM and 2.52 µM; in the assay on MCF7 breast, 2.49 µM and 2.35 µM; in the assay on BT-549 breast, 5.38 µM and 3.57 µM; in the assay with MDA-MB-231 breast, 3.68 µM and 1.81 µM; in the assay on T-47D breast, > 10 µM and 6.71 µM; with NCI/ADR-RES ovarian it was 5.72 µM and 2.5 µM. Also, the TGI in the assay with HS 578T breast was > 10 µM and 6.8 µM; in the assay on MCF7 breast, 7.39 µM and 7.55 µM; in the assay with BT-549 breast it was > 10 µM and 10 µM; in the assay with MDA-MB-231 breast, > 10 µM and 14.3 µM; in the assay with T-47D breast it was > 10 µM and 32.3 µM; in the assay with NCI/ADR-RES ovarian it was > 10 µM and 16.1 µM.

For `Cc1ccc(O)c(NC(=O)c2ccc(CNc3ccnc(C(F)(F)F)c3)cc2)c1`, the GI50 in the assay on HS 578T breast is 11.2 µM; in the assay with MCF7 breast, 4.06 µM; in the assay on BT-549 breast, 3.48 µM; in the assay on MDA-MB-231 breast, 3.36 µM; in the assay with T-47D breast, 1.74 µM; with NCI/ADR-RES ovarian, 4.68 µM. The TGI in the assay on HS 578T breast was 42.8 µM; with MCF7 breast, 38.9 µM; in the assay on BT-549 breast it was 28.4 µM; in the assay with MDA-MB-231 breast it was 47.2 µM; with T-47D breast it was 17.7 µM; in the assay with NCI/ADR-RES ovarian, 37.8 µM.

Take `CN(C)c1ccc(/C=C/c2cc[n+](C)c(/C=C/c3ccc(N(C)C)cc3)c2)cc1`: the GI50 in the assay with HS 578T breast was 0.491 µM; in the assay with MCF7 breast, 0.272 µM; in the assay with BT-549 breast it was 0.349 µM; with MDA-MB-231 breast it was 0.322 µM; in the assay on T-47D breast, 0.152 µM; in the assay on NCI/ADR-RES ovarian it was 3.81 µM. The TGI in the assay with HS 578T breast was determined as 16.6 µM; with MCF7 breast, 1.13 µM; in the assay with BT-549 breast it was 1.61 µM; in the assay on MDA-MB-231 breast it was 1.28 µM; in the assay on T-47D breast, 1.3 µM; in the assay with NCI/ADR-RES ovarian it was 18.7 µM.

With `COc1cccc(/C=N/C(/N=C/c2cccc(OC)c2O)c2cccc(OC)c2O)c1O`, the concentration for total growth inhibition (TGI) with HS 578T breast is 61.5 µM; with MCF7 breast it was 62.8 µM; in the assay with BT-549 breast, 71.9 µM; with MDA-MB-231 breast, greater than 100 µM; in the assay on T-47D breast, 63.9 µM; with NCI/ADR-RES ovarian it was 85.2 µM.

With `CCCCCCCc1cc2c3c(nc4ccccc42)C(=O)c2cccnc2-c3n1`, the GI50 in the assay with HS 578T breast was 4.86 µM; in the assay on MCF7 breast, 1.54 µM; with BT-549 breast, 16.2 µM; in the assay with MDA-MB-231 breast, 6.71 µM; in the assay with T-47D breast, 4.31 µM; in the assay on NCI/ADR-RES ovarian, 4.33 µM. In addition, the TGI was 11.6 µM with HS 578T breast; 5.92 µM in the assay on MCF7 breast; 33.2 µM in the assay with BT-549 breast; 20 µM with MDA-MB-231 breast; 20.7 µM in the assay on T-47D breast; 12.6 µM with NCI/ADR-RES ovarian.

Turning to `C#CCOc1cccc(Nc2ncnc3cc(NC(=O)CCl)ccc23)c1`, the GI50 in the assay with HS 578T breast is 3.61 µM; with MCF7 breast it was 1.95 µM; with BT-549 breast it was 6.08 µM; in the assay on MDA-MB-231 breast, 5.28 µM; with T-47D breast, 9.11 µM; with NCI/ADR-RES ovarian, 4.13 µM. Besides, the TGI in the assay on HS 578T breast was 26.9 µM; in the assay on MCF7 breast it was 7.99 µM; with BT-549 breast it was 20.3 µM; in the assay with MDA-MB-231 breast, 19.9 µM; with T-47D breast it was 32 µM; in the assay with NCI/ADR-RES ovarian it was 42.9 µM.

For the origin of these results see PubChem BioAssay (NCI).
